Measured values: patent US11464784B2, “Inhibition of aminocylase 3 (AA3) in the treatment of cancer” (THE REGENTS OF THE UNIVERSITY OF CALIFORNIA, priority 2017, dated 2022)

B1: mAA3 (Mus musculus) (protein)
chain: MSSLPGSREPLLRVAVTGGTHGNEMCGVYLARYWLQNPGELQRPSFSAMPVLANPAATAACCRYLDRDLNRSCTLTFLGSTATPDDPYEVKRARELNQLLGPKGTGQAFDFTLDLHNTTANTGVCLISESNISFNLHLCHYLQRQNPGMPCRLFLYEPAGTETFSVESISKNGICLEMGPQPQGVLRADLFSRMRALVASILDFIELFNQGMDLPAFEMDIYRNLGSVDFPRTADGDLAGTVHPQLQDHDFEPLRPGEPIFKLFSGEDVLYEGDSIVYPVFINEAAYYEKHVAFLKSEKIRVTVPALLRLTPRSTQTP

How the values were obtained:
HuH7 cells [1] = test: Levels of FC and NAFC in HuH7 cells (LC/MS); type: cell-based, human
Method: (§1) HUH7 and HepG2 cells were seeded in 6-well plates at a density 250,000 cells per well in complete medium. Next day the medium was changed to 2 ml DMEM with 1% FBS containing a 10-20 μM AA3 inhibitor. After 24 h incubation, the medium was collected, concentrated 10 times on a vacuum concentrator; 10 μl aliquots were used for quantitation by LC/MS and LC/MS/MS-MRM. The cells were trypsinized, washed in PBS and centrifuged at 2,000 g for 10 min. Then cell pellet was lysed on ice in 50 μl of 20 mM Tris-HCl, pH 7.5, containing 1% dodecyl maltoside (DDM) and 1× protease inhibitor cocktail (Sigma/Aldrich). After centrifugation (14,000 g, 10 min) the supernatants were diluted 4 times with methanol and centrifuged (14,000 g, 10 min), then the supernatants were diluted 10 times with water, and 10 μl aliquots were used for quantitation by LC/MS and LC/MS/MS-MRM as described above expect electrospray ionization was used with an Agilent 6460 triple quadrupole mass spectrometer.

[2] = tested on: membrane associated Ras in HepG2 cells; test: Membrane associated Ras in HepG2 cells (immunoblot); type: cell-based, human; settings: HepG2, 24 h
Method: Cultured HCC cells and primary hepatocytes were washed with PBS buffer, treated with 0.25% Trypsin-EDTA solution (Corning) and precipitated at 1,000 rpm for 5 min. For protein extraction, HCC cells were lysed on ice by vortexing every 5 min for 30 min in RIPA buffer containing 20 mM Tris-HCl (pH 7.5), 150 mM NaCl, 5 mM EDTA, 1% Triton X-100, 0.5% sodium deoxycholate, 0.1% SDS, and 1× Halt protease inhibitor cocktail (Thermo Scientific, Waltham, Mass.). Prenylated Ras other membrane associated proteins were extracted from HCC cells using a Mem-PER Plus Kit (Thermo Scientific) according to the manufacturer's protocol. […]
HepG2 cells were seeded in 6-well plates at a density 250,000 cells per well. […] 24 h later cells were collected, washed with PBS and the membrane associated Ras proteins were extracted as described above, resolved on SDS-PAGE, and detected with the anti-Ras antibody (EMD Millipore).
To study the effect of AA3 suppression on Ras membrane association, HepG2 and HuH7 cells seeded onto 6-well plates at the same density, were transfected with 50 pmol ACY3 (AA3) Silencer Select Pre-designed siRNA (Invitrogen, Grand Island, N.Y.) using the Lipofectamine RNAiMAX reagent (Invitrogen) following the manufacturer protocol. […] After 48 h incubation, membrane associated proteins were extracted and membrane associated Ras was determined by immunoblotting as described above.

[3] = tested on: primary colon epithelial cells; test: MTT cell viability, normal colon cells; type: cell-based, human; settings: colon (FIG. 24)
Description: (§2) Human colon cancer cell lines COLO 205, HCT 116, LS 513 (all ATCC), primary colon epithelial cells (Cell Biologics), pancreatic cancer cell lines PANC-1, MIA PaCa-2, BxPC-3, and normal pancreatic duct epithelial cells (UCLA collection) were used in experiments. COLO 205, LS 513, BxPC-3 cells were cultivated in RPMI 1640 medium with 10% FBS, HCT 116 cells were cultivated in McCoy's 5A medium with 10% FBS, PANC-1 and MIA PaCa-2 cell lines were cultivated in DMEM medium with 10% FBS, and normal colon and pancreatic cells were maintained in Human Epithelial Cell Medium (Cell Biologics).
HCC cell lines HepG2, HuH7, primary hepatocytes, colon cell lines COLO 205, HCT 116, LS 513, primary colon epithelial cells, pancreatic cancer cell lines PANC-1, MIA PaCa-2, BxPC-3, and normal pancreatic duct epithelial cells were seeded in 96-well plates at a density 10,000 cells per well in complete medium. Next day medium was changed to medium containing 1% FBS and an AA3 inhibitor (3-100 μM). 24 h later cell viability was determined using the MTT (3-(4,5-dimethylthiazol-2-yl)-2,5-diphenyltetrazolium bromide) cell viability assay. […] Then 50 μl of 20% SDS in 25 mM HCl was added to each well, incubated for 4 h and the optical density at 570 nm was measured on a VMax Kinetic Microplate Reader (Molecular Devices, Sunnyvale, Calif.).

[4] = tested on: colon cancer cell lines COLO 205, HCT 116, LS 513; test: MTT cell viability, colon cancer cell lines; type: cell-based, human; settings: lines expressing wild type (wt) or mutant (mut) KRas
Description: as §2
(§3) HCC cell lines HepG2, HuH7, primary hepatocytes, colon cell lines COLO 205, HCT 116, LS 513, primary colon epithelial cells, pancreatic cancer cell lines PANC-1, MIA PaCa-2, BxPC-3, and normal pancreatic duct epithelial cells were seeded in 96-well plates at a density 10,000 cells per well in complete medium. Next day medium was changed to medium containing 1% FBS and an AA3 inhibitor (3-100 μM). 24 h later cell viability was determined using the MTT (3-(4,5-dimethylthiazol-2-yl)-2,5-diphenyltetrazolium bromide) cell viability assay. Cells were incubated during 4 h at 37° C. with 150 μl fresh media containing 0.5 mg/ml MTT. Then 50 μl of 20% SDS in 25 mM HCl was added to each well, incubated for 4 h and the optical density at 570 nm was measured on a VMax Kinetic Microplate Reader (Molecular Devices, Sunnyvale, Calif.).

[5] = tested on: normal primary hepatocytes; test: MTT cell viability, normal primary hepatocytes; type: cell-based; settings: inhibitor 10: 0-50 μM range; inhibitor 11: in comparison with HCC cell lines
Method: as §3
(§4) To study the effect of AA3 silencing, HepG2 and HUH7 cells seeded in 96-well plates were transfected with 2 pmol AA3 siRNA using the Lipofectamine RNAiMAX reagent as per the manufacturer protocol. Cell viability was measured in the MTT assay 48 h later as described.

[6] = tested on: pancreatic cancer cell lines PANC-1, MIA PaCa-2, BxPC-3; test: MTT cell viability, pancreatic cancer cell lines; type: cell-based, human
Description: as §2, §3

HepG2 cells [7] = test: MTT cell viability, HepG2; type: cell-based, human; settings: HepG2, within the micromolar range, 24 h
Method: as §3, §4

HepG2 cells [8] = test: Levels of FC and NAFC in HepG2 cells (LC/MS); type: cell-based, human
Method: as §1

HuH7 cells [9] = test: MTT cell viability, HuH7; type: cell-based, human; settings: HuH7, within the micromolar range, 24 h
Method: as §3, §4

[10] = tested on: normal pancreatic duct epithelial cells; test: MTT cell viability, normal pancreatic cells; type: cell-based, human
Description: as §2, §3

[11] = substrate: CC(=O)C/C(C)=C/CC/C(C)=C/CC/C(C)=C/CC/C(C)=C/CN[C@@H](CS)C(=O)O; test: Substrate kinetics of mouse AA3 (mAA3); type: biochemical; settings: other: substrate of mAA3
[12] = HuH7, 10-20 μM inhibitor, 24 h, vs untreated
[13] = HepG2, 10-20 μM inhibitor, 24 h, vs untreated

| Molecule | FC level decreased by (HuH7 cells [1]; [12]) | level of NAFC (HuH7 cells [1]; [12]) | [FC]/[NAFC] ratio (HuH7 cells [1]; HuH7 treated cells (untreated ~2.8)) | level of the membrane associated Ras decreased by, % of control [2] [%] | toxicity for normal vs cancer cell lines [3] | growth of colon cancer cell lines [4] | toxicity to normal primary hepatocytes [5] | toxicity for pancreatic cancer cells [6] | efficiency for pancreatic cell lines ([6]; lines expressing either wild type (wt) or mutant (mut) KRas) | toxicity (cell viability) (HepG2 cells [7]) | FC level (HepG2 cells [8]; [13]) | level of NAFC (HepG2 cells [8]; [13]) | [FC]/[NAFC] ratio (HepG2 cells [8]; HepG2 treated cells (untreated ~8.4)) | toxicity (cell viability) (HuH7 cells [9]) | toxicity for pancreatic normal cells [10] | toxicity for normal vs cancer cell lines ([10]; pancreatic (FIG. 25)) | Km [11] [µM] |
| --- | --- | --- | --- | --- | --- | --- | --- | --- | --- | --- | --- | --- | --- | --- | --- | --- | --- |
| O=c1nc(-c2ccccc2)sc2ccccc12 [Inhibitor 10, 2-Phenyl-4H-1,3-benzothiazin-4-one] | approximately 50% | significantly increased | ~0.85 | ~50 | significantly less toxic | suppress growth | not toxic | toxic | efficient | toxic | not significantly changed | significantly increased | ~1.6 | toxic | toxic | significantly less toxic |  |
| B1 |  |  |  |  |  |  |  |  |  |  |  |  |  |  |  |  | 25 |
